Values belong to the molecule of their own block, whether it stands above or below them.
Tests used:
Type in all cases: functional, cell-based
HeLa [1] = assay: Antiproliferative activity against human HeLa cells assessed as reduction in cell growth measured after 48 hrs by MTT assay
MCF7 [2] = assay: Antiproliferative activity against human MCF7 cells assessed as inhibition of cell growth incubated for 24 hrs by MTT assay; details: MCF7, 24 h
SGC-7901 [3] = assay: Antiproliferative activity against human SGC-7901 cells assessed as cell growth inhibition
C-33-A = assay: Antiproliferative activity against human C-33-A cells assessed as reduction in cell viability measured after 48 hrs by MTT assay
SiHa = assay: Antiproliferative activity against human SiHa cells assessed as inhibition of cell growth by MTT assay
[4] = Antiproliferative activity against human CaLo cells assessed as reduction in cell viability
Hep 3B2 = assay: Cytotoxicity against human Hep3B cells assessed as inhibition of cell growth by MTT assay
RD = assay: Antiproliferative activity against human RD cells assessed as cell growth inhibition measured after 72 hrs by MTT assay
SGC-7901 [5] = assay: Cytotoxicity against human SGC-7901 cells assessed as reduction in cell viability measured after 48 hrs by MTT colorimetric assay; details: SGC-7901, 48 h
SK-BR-3 = assay: Antiproliferative activity against human SK-BR-3 cells incubated for 72 hrs by MTT assay; details: SK-BR-3, 72 h
SMMC-7721 = assay: Antiproliferative activity against human SMMC-7721 cells assessed as reduction in cell growth by SRB assay
CAMA-1 = assay: Antiproliferative activity against human CAMA-1 cells assessed as cell growth inhibition
MDA-MB-231 = assay: Antiproliferative activity against human MDA-MB-231 cells assessed as cell growth inhibition
MDA-MB-453 = assay: Antiproliferative activity against human MDA-MB-453 cells assessed as reduction in cell growth after 72 hrs by MTT assay; details: MDA-MB-453, 72 h
MCF7 [6] = assay: Antiproliferative activity against human MCF7 cells assessed as cell growth inhibition incubated for 6 days by SRB assay; details: MCF7, 144 h
Bel-7402 = assay: Cytotoxicity against human Bel-7402 cells measured after 72 hrs by MTT assay; details: Bel-7402, 72 h
A549 = assay: Antiproliferative activity against human A549 cells assessed as cell growth inhibition measured after 72 hrs by MTT assay; details: A549, 72 h
A2780 = assay: Antiproliferative activity against human A2780 cells assessed as inhibition of cell growth
HeLa [7] = assay: Cytotoxicity against human HeLa cells assessed as reduction in cell viability
MCF7 [8] = assay: Antiproliferative activity against human MCF7 cells assessed as cell growth inhibition measured after 72 hrs by MTT assay; details: MCF7, 72 h
LoVo = assay: Cytotoxicity against human LoVo cells incubated for 72 hrs by MTT assay
PC-3 = assay: Cytotoxicity against human PC-3 cells assessed as reduction in cell viability
HepG2 = assay: Antiproliferative activity against human HepG2 cells assessed as inhibition of cell proliferation after 72 hrs by MTT assay; details: HepG2, 72 h

IC50 (HeLa [1]): 0.9 µM
IC50 (MCF7 [2]): 1.2 µM
IC50 (SGC-7901 [3]): 1.1 µM
SMILES: O=C(c1cc2ccc(Cl)cc2n1Cc1cccc2ccccc12)N(CCO)[C@@H]1CC(=O)N2C[C@@H]3CCCN4CCC[C@@H]([C@H]34)[C@H]2C1

SMILES: O=C1C(Cl)=C(NC(Cc2c[nH]c3ccccc23)C(=O)O)C(=O)c2ccccc21 (stereo not drawn)
IC50 (C-33-A): 0.003 µM
IC50 (SiHa): 3.2 µM
IC50 [4]: 2.69 µM

SMILES: O=C(/C=C(O)/C=C/c1c[nH]c2ccccc12)/C=C/c1c[nH]c2ccccc12
IC50 (Hep 3B2): 14 µM

SMILES: CC(=O)O[C@H]1C(=O)[C@@]2(C)[C@H]([C@H](OC(=O)c3ccccc3)[C@]3(O)C[C@H](OC(=O)[C@H](O)[C@@H](NC(=O)c4ccccc4)c4ccccc4)C(C)=C1C3(C)C)[C@]1(OC(C)=O)CO[C@@H]1C[C@@H]2O [PACLITAXEL]
IC50 (RD): > 10 µM
IC50 (SGC-7901 [5]): 14.3 µM

SMILES: CC[C@@]1(O)C(=O)OCc2c1cc1n(c2=O)Cc2cc3ccccc3nc2-1 [CAMPTOTHECIN]
IC50 (SK-BR-3): < 0.01 µM
IC50 (SMMC-7721): 3.95 µM
IC50 (CAMA-1): 0.07 µM
IC50 (MDA-MB-231): < 0.01 µM
IC50 (MDA-MB-453): < 0.01 µM
IC50 (MCF7 [6]): < 0.01 µM

IC50 (A549): 0.022 µM
IC50 (A2780): 0.037 µM
IC50 (MCF7 [8]): 0.051 µM
SMILES: COc1cc(C2CCCCc3c2ccc2c3ccn2C)cc(OC)c1OC (stereo not drawn)
IC50 (Bel-7402): 0.039 µM
IC50 (HeLa [7]): 0.056 µM
IC50 (LoVo): 0.049 µM
IC50 (PC-3): 0.047 µM

SMILES: COc1cc(/C=N/NC(=O)c2cn(Cc3ccccc3)c3ccccc23)cc(OC)c1OC
IC50 (HepG2): 0.00063 µM
